This note sets out measurements from patent publication US20110301155A1, “INDAZOLE COMPOUNDS FOR ACTIVATING GLUCOKINASE” (priority 2007, published 2011).

Series [1] concerns the target T1, GST-hLGK1 (human liver type GK) (Homo sapiens, UniProt P35557).
T1 construct: made in house; host or cells: Escherichia coli BL21 (pGEX6P-2/hLGK1)
T1 sequence (P35557 1-464 isoform P35557-3): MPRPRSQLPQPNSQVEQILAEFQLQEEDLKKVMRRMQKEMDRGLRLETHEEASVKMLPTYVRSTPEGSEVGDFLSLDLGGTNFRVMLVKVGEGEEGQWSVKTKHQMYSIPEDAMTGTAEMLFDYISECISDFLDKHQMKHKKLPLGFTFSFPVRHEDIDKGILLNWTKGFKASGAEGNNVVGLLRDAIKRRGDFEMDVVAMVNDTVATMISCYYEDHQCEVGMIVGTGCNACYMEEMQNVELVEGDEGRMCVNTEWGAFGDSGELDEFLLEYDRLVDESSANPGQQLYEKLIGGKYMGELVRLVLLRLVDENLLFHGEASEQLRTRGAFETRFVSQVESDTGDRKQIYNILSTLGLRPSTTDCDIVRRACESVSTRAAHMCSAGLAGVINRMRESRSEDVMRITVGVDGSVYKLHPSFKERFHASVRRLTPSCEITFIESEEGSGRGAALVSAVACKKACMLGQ
The experiment in a line: Determination of GK activity value (fluorescence assay). Format: biochemical. As to conditions: test compound 10 μmol/L, 5 mmol/L D-glucose, reaction rate as percentage of control without compound. As for the experimental part:
Plasmid DNA to be used for the expression of a protein (GST-hLGK1) containing GST (Glutathione S-transferase) added to the amino terminal of human liver type GK in Escherichia coli was prepared as shown below.
BL21 strain (Stratagene) transformed with pGEX6P-2/hLGK1 obtained in Reference Example 1A was cultured with shaking at 37° C. for 14 hr in a 200 ml Erlenmeyer flask containing 50 ml of 100 μg/ml ampicillin-containing LB medium. The culture medium (25 ml) was diluted with 225 ml of 100 μg/ml ampicillin-containing LB medium, and further cultured with shaking at 37° C. for 1 hr in a 1L Erlenmeyer flask. After culture, the Erlenmeyer flask was cooled on ice, 125 μL of 100 mM isopropyl-thio-β-D-galactopyranoside (IPTG) was added (final concentration 50 μM), and cultured at 17° C. for 20 hr. The culture medium was centrifuged, and the obtained fungus was disrupted by ultrasonication. The object protein (GST-hLGK1) was purified from the supernatant using Glutathione Sepharose 4B (Amersham Biosciences. K.K.).
GK enzyme reactions were performed in 50 mmol/L HEPES pH 7.4, 200 mmol/L KCl, 5 mmol/L MgCl2, 2 mmol/L DTT, containing 50 μmol/L 2′-(or-3′)-O-(N-methylanthraniloyl)adenosine 5′-triphosphate (Mant-ATP) (Jena Bioscience GmbH), 5 mmol/L D-glucose, 5% DMSO and 6 μg/mL GST-hLGK1 obtained in Reference Example 2A in a total volume 50 μL. The reactions were performed in 384 well black plates (Nalge Nunc International K.K.). Prior to the reaction, the enzyme and test compound were incubated for 10 min at 37° C., and 25 mM D-glucose solution (10 μL) was added to start the reaction. The final concentration of the test compound is 10 μmol/L. After the incubation for 60 min at 37° C., the reaction was quenched by adding 25 μL of a quenching solution (containing 200 mM HEPES (pH 7.4), 20 mM MgCl2, 200 mM EDTA, 0.03% Triton-X 100, 0.3% Coating 3 reagent (Caliper Life Sciences, Inc.)).
Mant-ATP (substrate, 2′-(or-3′)—O—(N-methylanthraniloyl)adenosine 5′-triphosphate) and Mant-ADP (reaction resultant product) were separated from each well after the reaction by a microchip type capillary electrophoresis apparatus 250 HTS (Caliper Life Sciences, Inc.). The reaction rate [(reaction resultant product peak height)/(reaction resultant product peak height+substrate peak height)×100(%)] was calculated from the ratio of the substrate peak height and reaction resultant product peak height obtained by fluorescence detection (excitation wavelength 355 nm, measurement wavelength 460 nm) and used as the index of GK activity.
As a control group, the reaction rate was calculated in the same manner as above without the test compounds.
The percentage obtained by dividing the reaction rate of the well added with the test compound (test compound addition group) by the reaction rate of the control group was taken as the GK activity value (Emax) of the test compound.

SMILES strings stand for the structures. Where a name gives a salt, the structure may show the parent alone.

The term Emax denotes the size of the effect at its maximum, as opposed to the concentration needed. By melting point is commonly meant the temperature, or range, at which the solid turns liquid. Turning to `CC(C)Cc1cc(OCCc2ccsc2)c2[nH]nc(Nc3nccs3)c2c1` [Example 72, 5-isobutyl-N-1,3-thiazol-2-yl-7-[2-(3-thienyl)ethoxy]-1H-indazole-3-amine], the melting point lay in the range of 150 to 151 °C. This compound also returned an Emax at 10 µM in series [1] of 194%.

Take `CC(C)Cc1cc(OCC(=O)N(C)C)c2[nH]nc(Nc3nccs3)c2c1` [Example 73, 2-{[5-isobutyl-3-(1,3-thiazol-2-ylamino)-1H-indazole-7-yl]oxy}-N,N-dimethylacetamide]: the melting point lay in the range of 96 to 98 °C. For the same compound, in series [1], the Emax at 10 µM was 111%.

In series [1], `Cn1ccc(Nc2n[nH]c3c(Oc4ccc(S(C)(=O)=O)cc4)cc(-c4ncccc4Cl)cc23)n1` [Example 105, 5-(3-chloropyridin-2-yl)-N-(1-methyl-1H-pyrazol-3-yl)-7-[4-(methylsulfonyl)phenoxy]-1H-indazole-3-amine] displayed an Emax at 10 µM of 140%.

Compound `CCNC(=O)Nc1n[nH]c2ccc(-c3ncccc3Cl)cc12` [Example 101, N-[5-(3-chloropyridin-2-yl)-1H-indazol-3-yl]-N′-ethylurea] registered a melting point of 178 to 180 °C. Besides, in series [1], the maximum response (Emax) at 10 µM came to 202%.

Regarding `COC[C@H](C)Oc1cc(OCCc2ccccn2)c2[nH]nc(Nc3nccs3)c2c1` (as salt: hydrochloride) [Example 108, 5-[(1S)-2-methoxy-1-methylethoxy]-7-(2-pyridin-2-ylethoxy)-N-1,3-thiazol-2-yl-1H-indazole-3-amine dihydrochloride], the melting point lay within 150 to 153 °C.

Turning to `CC(C)S(=O)(=O)c1cc(OCCc2ccccn2)c2[nH]nc(Nc3nccs3)c2c1` [Example 117, 5-(isopropylsulfonyl)-7-(2-pyridin-2-ylethoxy)-N-1,3-thiazol-2-yl-1H-indazole-3-amine], the melting point is 190 to 191 °C. Also, in series [1], the Emax at 10 µM worked out at 211%.

In the case of `Clc1cccnc1-c1cc(OCCc2ccccn2)c2[nH]nc(Nc3nccs3)c2c1` [Example 85, 5-(3-chloropyridin-2-yl)-7-(2-pyridin-2-ylethoxy)-N-1,3-thiazol-2-yl-1H-indazole-3-amine], the melting point fell in the range of 185 to 187 °C. For the same compound, the Emax at 10 µM in series [1] worked out at 231%.

In series [1], `COC[C@H](C)Oc1cc(OCCc2ccccn2)c2[nH]nc(Nc3nccs3)c2c1` [Example 108, 5-[(1S)-2-methoxy-1-methylethoxy]-7-(2-pyridin-2-ylethoxy)-N-1,3-thiazol-2-yl-1H-indazole-3-amine dihydrochloride] returned an Emax at 10 µM of 199%.

Consider `O=S(=O)(c1ccc2[nH]nc(Nc3nccs3)c2c1)N1CCCC1` [Example 20, 5-(pyrrolidin-1-ylsulfonyl)-N-1,3-thiazol-2-yl-1H-indazole-3-amine], for which the Emax at 10 µM in series [1] came out at 156%.

For the compound `Cn1ccc(Nc2n[nH]c3ccc(-c4ncccc4Cl)cc23)n1` [Example 63, 5-(3-chloropyridin-2-yl)-N-(1-methyl-1H-pyrazol-3-yl)-1H-indazole-3-amine], the melting point was in the range of 190 to 191 °C. This compound displayed an Emax at 10 µM in series [1] of 175%.

As to `Cn1ccc(Nc2n[nH]c3c(OCCc4ccccn4)cc(-c4ncccc4Cl)cc23)n1` [Example 100, 5-(3-chloropyridin-2-yl)-N-(1-methyl-1H-pyrazol-3-yl)-7-(2-pyridin-2-ylethoxy)-1H-indazole-3-amine], the melting point was 89 to 91 °C. In series [1], this compound came in with an Emax at 10 µM of 200%.

In turn, `CCn1nc(Nc2nccs2)c2cc(-c3ncccc3Cl)ccc21` [Example 30, 5-(3-chloropyridin-2-yl)-1-ethyl-N-1,3-thiazol-2-yl-1H-indazole-3-amine] showed an Emax at 10 µM in series [1] of 129%.

As to `Cn1ccnc1Sc1ccc2[nH]nc(Nc3nccs3)c2c1` [Example 109, 5-[(1-methyl-1H-imidazol-2-yl)thio]-N-1,3-thiazol-2-yl-1H-indazole-3-amine], the melting point is more than 250 °C. For the same compound, the Emax at 10 µM in series [1] was found to be 218%.

With `CCCc1cc(-c2cc3ccccc3s2)c2[nH]nc(Nc3nccs3)c2c1` [Example 28, 7-(1-benzothien-2-yl)-5-propyl-N-1,3-thiazol-2-yl-1H-indazole-3-amine], the Emax at 10 µM in series [1] was found to be 231%.

Compound `Clc1cccnc1-c1ccc2[nH]nc(Nc3ncc(CN4CCOCC4)s3)c2c1` [Example 34, 5-(3-chloropyridin-2-yl)-N-[5-(morpholin-4-ylmethyl)-1,3-thiazol-2-yl]-1H-indazole-3-amine] had a melting point of 217 °C. The compound further displayed an Emax at 10 µM in series [1] of 186%.
